In the supplement of paper PMC10307832:

Assays:
Assay in all cases: relative viability (nuclei count vs DMSO), 5 days (fraction); higher = more cells survive
AGI-6780 + Tozasertib = compound: O=C(Nc1cccc(C(F)(F)F)c1)Nc1cc(S(=O)(=O)NC2CC2)ccc1-c1ccsc1 [AGI-6780] + Cc1cc(Nc2cc(N3CCN(C)CC3)nc(Sc3ccc(NC(=O)C4CC4)cc3)n2)n[nH]1 [Tozasertib] (partner 0.1 µM)
How it was run: (§1)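 The day after seeding in 1536-well plates, lung cancer cell lines were treated by pin tool with a single drug, or with a fixed anchor-drug dose together with five library-drug doses (not always all listed) in √10 steps. After 5 days, a combined fix-and-stain solution (final 0.05% Triton X-100, 1% formaldehyde, 1 ug/ml Hoechst) was added. Nuclei counted on 4× images gave relative viability as treated counts over vehicle counts, reported as the median of duplicate plates.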

AGI-6780 + Bortezomib = compound: O=C(Nc1cccc(C(F)(F)F)c1)Nc1cc(S(=O)(=O)NC2CC2)ccc1-c1ccsc1 [AGI-6780] + CC(C)C[C@H](NC(=O)[C@H](Cc1ccccc1)NC(=O)c1cnccn1)B(O)O [Bortezomib] (partner 0.002 µM)
How it was run: as §1

AGI-6780 + Decitabine = compound: O=C(Nc1cccc(C(F)(F)F)c1)Nc1cc(S(=O)(=O)NC2CC2)ccc1-c1ccsc1 [AGI-6780] + Nc1ncn([C@H]2C[C@H](O)[C@@H](CO)O2)c(=O)n1 [Decitabine] (partner 2 µM)
How it was run: as §1

AGI-6780 + AZD7762 = compound: O=C(Nc1cccc(C(F)(F)F)c1)Nc1cc(S(=O)(=O)NC2CC2)ccc1-c1ccsc1 [AGI-6780] + NC(=O)Nc1cc(-c2cccc(F)c2)sc1C(=O)N[C@H]1CCCNC1 [AZD7762] (partner 0.2 µM)
How it was run: as §1

Cell Line | relative viability (AGI-6780 + Tozasertib; first compound 0.08 µM) | relative viability (AGI-6780 + Tozasertib; first compound 0.253 µM) | relative viability (AGI-6780 + Tozasertib; first compound 0.8 µM) | relative viability (AGI-6780 + Tozasertib; first compound 8 µM) | relative viability (AGI-6780 + Bortezomib; first compound 0.08 µM) | relative viability (AGI-6780 + Bortezomib; first compound 0.253 µM) | relative viability (AGI-6780 + Bortezomib; first compound 0.8 µM) | relative viability (AGI-6780 + Bortezomib; first compound 8 µM) | relative viability (AGI-6780 + Decitabine; first compound 0.08 µM) | relative viability (AGI-6780 + Decitabine; first compound 0.253 µM) | relative viability (AGI-6780 + Decitabine; first compound 0.8 µM) | relative viability (AGI-6780 + Decitabine; first compound 8 µM) | relative viability (AGI-6780 + Tozasertib; first compound 2.53 µM) | relative viability (AGI-6780 + Decitabine; first compound 2.53 µM) | relative viability (AGI-6780 + AZD7762; first compound 0.08 µM) | relative viability (AGI-6780 + AZD7762; first compound 0.253 µM) | relative viability (AGI-6780 + AZD7762; first compound 0.8 µM) | relative viability (AGI-6780 + AZD7762; first compound 2.53 µM) | relative viability (AGI-6780 + AZD7762; first compound 8 µM) | relative viability (AGI-6780 + Bortezomib; first compound 2.53 µM)
UMC-11 | 0.197 | 0.198 | 0.206 | 0.192 | 0.671 | 0.712 | 1.06 | 1.04 | 0.394 | 0.335 | 0.7 | 0.678 |  |  |  |  |  |  |  | 
NCI-H1648 | 0.45 | 0.581 | 0.639 | 0.378 |  |  |  |  | 0.551 | 0.418 | 0.506 | 0.627 | 0.401 | 0.459 | 0.676 | 0.846 | 0.89 | 0.769 | 0.81 | 
SW 900 | 0.526 | 0.52 | 0.644 | 0.512 |  |  |  |  | 0.454 | 0.454 | 0.386 | 0.445 | 0.473 | 0.413 | 0.657 | 0.676 | 0.811 | 0.557 | 0.634 | 
NCI-H2009 | 0.605 | 0.725 | 0.845 | 0.683 | 1.03 | 1.04 | 0.969 | 1.12 | 0.396 | 0.365 | 0.428 | 0.382 | 0.701 | 0.322 |  |  |  |  |  | 1.07
NCI-H1793 | 0.355 | 0.318 | 0.351 | 0.312 |  |  |  |  | 0.519 | 0.539 | 0.415 | 0.549 | 0.332 | 0.342 | 0.747 | 0.517 | 0.703 | 0.36 | 0.409 | 
